Tests used:
[1] = tested on: Acinetobacter spp. strains (drug-resistant); assay: Radial diffusion assay, Example III; type: cell-based; conditions: pH 5.5 and pH 7.5; all strains tested
Procedure: (§1) The top eleven prioritized target sequences identified in Example I (see Table 21) were synthesized by solid-phase chain extension synthesis using conventional techniques. Each synthetic peptide was purified by RP-HPLC, and authenticated for purity and correct sequence by mass spectroscopy. Stock concentrations of the synthetic peptides were prepared at 1 mg/mL in 0.01% acetic acid and adjusted to pH 7.2. Synthetic peptides were assessed for antimicrobial efficacy, spectra, and conditional optima (pH 5.5 or 7.5) using the following modified radial diffusion assay, as detailed in Yount and Yeaman, PNAS […] (2004).
(§2) Molecular grade agarose (1.0%) in 10 mM NaH2PO4H2O was prepared, pH adjusted to 7.5 or 5.5, and autoclaved for 15 minutes at 121° C., then held in a waterbath set at 48° C. until used. Mueller Hinton II overlay agarose was prepared by adding molecular grade agarose to Mueller Hinton II Broth at a final concentration of 1.0%, pH adjusted to 7.5 or 5.5, autoclaved for 10 minutes at 121° C., and then held at 48° C. until used.
(§3) Trypticase Soy Broth (TSB) (10 mL) we inoculated with an overnight growth of the test organism and incubated three to six hours until the organism reached log phase. The cells were collected by centrifugation, washed in PBS, then 0.01% acetic acid adjusted to pH 7.2. The pellet was resuspended in TSB and standardized to a 0.5 McFarland turbidity standard. A 10 μl aliquot of the inoculum is added to 10 mL of the pH-adjusted 1.0% molecular grade agarose cooled to 48° C. resulting in a final inoculum concentration of 5×10^5 CFU/mL. The suspension is poured into a 15×100 mm Petri dish and allowed to solidify.
(§4) After solidification had occurred, five 4 mm diameter wells were bored into the agarose. The central well was used as the acetic acid control while 10 μl of peptide stock solution was added to each of the other wells resulting in a final concentration of 10 μg peptide/well. The plates were incubated upright for three hours at 37° C., then overlaid with 10 mL of Mueller Hinton II agarose. After the overlay solidified, the plates were inverted and incubated overnight at 37° C.
(§5) The synthetic peptides identified in Table 22 were assayed for antimicrobial activity against known pathogenic microorganisms. These pathogenic microorganisms included five species of bacteria (Staphylococcus aureus, Escherichia coli, Salmonella typhimurium, Pseudomonas aeruginosa and Bacillus subtilis) and one species of fungi (Candida albicans) (see Table 23). Zones of growth inhibition were measured and were grouped as complete and/or partial growth zones for the assayed microorganism. Zones were considered complete clearance when there was no visible growth (i.e. completely clear or free of growth). Zones were considered partial clearance when growth was impeded or partially cleared (i.e. reduction in microbial density as compared to adjacent confluent growth). The larger the zone size, the greater the antimicrobial activity of the test peptide. The lack of a zone is an indication of no antimicrobial activity of the test peptide against the target organism under the conditions tested.
(§6) Further to the methods disclosed in Example II, utilizing the same antimicrobial assay above, the antimicrobial activity of peptides Hol-III-4 (SEQ ID NO: 268) and Ncl-VIII-6 (SEQ ID NO: 152 was determined by identifying zones of growth inhibition.
(§7) Hol-III-4 and Ncl-VIII-6 peptides were assayed for antimicrobial activity against a panel of drug-resistant Gram-negative bacterial pathogens, specifically Pseudomonas aeruginosa, and various Acinetobacter spp. strains. […] The RP-1 peptide is well known in the art to have antimicrobial activity, as illustrated in Yeaman et al., Antimicrobial Agents and Chemotherapy, 46(12):3883-3891 (2002). The 6W-RP-1 peptide is a 6-Trp variant of RP-1, which also has antimicrobial activity, as illustrated in Kilelee et al, Antimicrobial Agents and Chemotherapy 54(10):4476-4479 (2010).

[2] = tested on: Pseudomonas aeruginosa strains (drug-resistant); assay: Radial diffusion assay, Example III; type: cell-based; conditions: pH 5.5 and pH 7.5; all strains tested
Procedure: as §1, §2, §3, §4, §5, §6, §7

[3] = tested on: Acinetobacter baumannii isolates; assay: Radial diffusion assay, Example III; type: cell-based; conditions: pH 5.5 vs. pH 7.5
Procedure: as §1, §2, §3, §4, §5, §6, §7

[4] = tested on: Bacillus subtilis ATCC 6633; assay: Modified radial diffusion assay (zones of growth inhibition); type: cell-based; conditions: pH 5.5 versus pH 7.5
Procedure: (§8) An agar radial diffusion assay has been used as described herein to determine antimicrobial activities of proteins against microbial pathogens in vitro. One million CFU will be mixed into 10 ml (i.e., 1×10^5 CFU/ml) of melted 1% agarose (in 10 mM NaHPO4 and cooled to 42° C.) containing minimal nutrient and adjusted to either pH 5.5 or pH 7.2. The agar is solidified in culture dishes, and sample wells are formed. Peptides at various concentrations are dissolved in 10 μl of 0.01% acetic acid buffer (pH 5.5 or 7.2), loaded into individual wells, and incubated at 37° C. for three hours. The plate is then overlayed with 1% agarose containing nutrients and incubated (37° C., for at least 24 hours). Peptides purified by RP-HPLC lacking antimicrobial activity are tested in parallel as controls. Zones of inhibition are measured to quantify antimicrobial activity. This assay will not distinguish between microbicidal and microbiostatic actions, but is highly sensitive to peptides with one or both functions.
(§9) The following assay is designed to measure the relative antimicrobial activity of peptides by determining zones of growth inhibition.
as §1, §2, §3, §4
(§10) The synthetic peptides identified in Table 22 were assayed for antimicrobial activity against known pathogenic microorganisms. These pathogenic microorganisms included five species of bacteria (Staphylococcus aureus, Escherichia coli, Salmonella typhimurium, Pseudomonas aeruginosa and Bacillus subtilis) and one species of fungi (Candida albicans) (see Table 23). Zones of growth inhibition were measured and were grouped as complete and/or partial growth zones for the assayed microorganism. Zones were considered complete clearance when there was no visible growth (i.e. completely clear or free of growth). […]

Escherichia coli ML-35 = assay: as above; type: cell-based; conditions: pH 5.5 versus pH 7.5
Procedure: as §8, §9, §1, §2, §3, §4, §10

[5] = tested on: Salmonella typhimurium 14028; assay: as above; type: cell-based; conditions: pH 5.5 versus pH 7.5
Procedure: as §8, §9, §1, §2, §3, §4, §10

[6] = tested on: Pseudomonas aeruginosa 01; assay: as above; type: cell-based; conditions: pH 5.5 versus pH 7.5
Procedure: as §8, §9, §1, §2, §3, §4, §10

[7] = known in the art; cited from earlier work

Substance	antimicrobial activity (zone of inhibition) [1]	antimicrobial activity (zone of inhibition) [2]	pH dependence of antimicrobial activity [3]	effect of acidic pH on antimicrobial activity [4]	effect of acidic pH on antimicrobial activity (Escherichia coli ML-35)	effect of acidic pH on antimicrobial activity [5]	effect of acidic pH on antimicrobial activity [6]	antimicrobial activity [7]
H2N-IRLVSKYGKSKGIAYI-CONH2 (H-IRLVSKYGKSKGIAYI-NH2) [Ncl-VIII-6, designed from Nucleolin]	significant antimicrobial activity	significant antimicrobial activity	pH dependent	did not appear to affect the activity	did not appear to affect the activity	did not appear to affect the activity	did not appear to affect the activity	–
H2N-SIGSLIKRFAYKKAGV-CONH2 (H-SIGSLIKRFAYKKAGV-NH2) [Hol-III-4, designed from Holin protein]	significant antimicrobial activity	significant antimicrobial activity	pH dependent	did not appear to affect the activity	did not appear to affect the activity	did not appear to affect the activity	did not appear to affect the activity	–
H-ALFYFASKLYLKALYTKV-NH2 [BaxP-I-18]	–	–	–	did not appear to affect the activity	did not appear to affect the activity	did not appear to affect the activity	did not appear to affect the activity	–
N-AALYKKKIIKKLLES-C [PMP-2, C-terminal helix of the consensus molecule cPMP]	–	–	–	–	–	–	–	known to have antimicrobial activity

Reference: patent US9562083B2, “Peptides and methods for inducing cell death” (Los Angeles Biomedical Research Institute at Harbor-UCLA …, priority 2010, dated 2017)
